# Read-outs that look alike come from different tables or passages of the source.
# Test system: cancer cell lines
# Experiment: Cancer cell proliferation activity (CellTiterGlo, 72 h)
# Type: cell-based
# Settings: 72 h, 72 h, read-out: IC50
# Summary of the method: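 Readout is CellTiterGlo luminescence after 72 h compound exposure (0.1% DMSO final), started one day post-seeding, at 37 °C.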
smiles,measurement,setting,value
"Nc1nc(F)nc2c1ncn2[C@H]1C[C@H](O)[C@](CO)(CF)O1 [compound 150, (2R,3S,5R)-5-(6-amino-2-fluoro-9H-purin-9-yl)-2-(fluoromethyl)-2-(hydroxymethyl)tetrahydrofuran-3-ol]",IC50,5637 cell line (bladder),4.05 µM
same,IC50,AS49 cell line (lung),> 50 µM
same,IC50,CLS439 cell line (bladder),> 50 µM
same,IC50,HS729 cell line (muscle),12.3 µM
same,IC50,JAR cell line (placenta),1.74 µM
same,IC50,"Homo sapiens, 22Rv1, 72 h, 22RV1 cell line (prostate)",> 50 µM
same,IC50,"Homo sapiens, 786-0, 72 h, 786O cell line (kidney)",2.06 µM
same,IC50,"Homo sapiens, A204, 72 h, A204 cell line (muscle)",3.33 µM
same,IC50,"Homo sapiens, A673, 72 h, A673 cell line (bone)",> 50 µM
same,IC50,"Homo sapiens, A2780, 72 h, A2780 cell line (ovary)",4.62 µM
same,IC50,"Homo sapiens, A-375, 72 h, A375 cell line (skin)",2.32 µM
same,IC50,"Homo sapiens, A-431, 72 h, A431 cell line (skin)",2.32 µM
same,IC50,"Homo sapiens, ACHN, ACHN cell line (kidney)",> 50 µM
same,IC50,"Homo sapiens, ASPC1, 72 h, ASPC1 cell line (pancreas)",2.3 µM
same,IC50,"Homo sapiens, BT-20, 72 h, BT20 cell line (breast)",2.03 µM
same,IC50,"Homo sapiens, BXPC-3, 72 h, BXPC3 cell line (pancreas)",> 50 µM
same,IC50,"Homo sapiens, C-33-A, C33A cell line (cervical)",4.21 µM
same,IC50,"Homo sapiens, CAKI-1, 72 h, CAKI1 cell line (kidney)",0.32 µM
same,IC50,"Homo sapiens, COLO 205, 72 h, COLO205 cell line (colon)",> 50 µM
same,IC50,"Homo sapiens, COLO-678, 72 h, COLO678 cell line (colon)",> 50 µM
same,IC50,"Homo sapiens, Ca-Ski, CASKI cell line (cervical)",1.69 µM
same,IC50,"Homo sapiens, Caco-2, 72 h, CACO2 cell line (colon)",3.6 µM
same,IC50,"Homo sapiens, Calu-6, 72 h, CALU6 cell line (lung)",4.12 µM
same,IC50,"Homo sapiens, DLD-1, 72 h, DLD1 cell line (colon)",> 50 µM
same,IC50,"Homo sapiens, DU-145, 72 h, DU145 cell line (prostate)",1.47 µM
same,IC50,"Homo sapiens, EFO-21, 72 h, EFO21 cell line (ovary)",3.32 µM
same,IC50,"Homo sapiens, EJ-28, 72 h, EJ28 cell line (bladder)",3.49 µM
same,IC50,"Homo sapiens, Granta-519, 72 h, GRANTA-519 cell line (hematological)",4.01 µM
same,IC50,"Homo sapiens, HCT-15, 72 h, HCT15 cell line (colon)",> 50 µM
same,IC50,"Homo sapiens, HCT-116, 72 h, HCT116 cell line (colon)",2.89 µM
same,IC50,"Homo sapiens, HEK293, 72 h, HEK293 cell line (kidney)",2.46 µM
same,IC50,"Homo sapiens, HL-60, 72 h, HL-60 cell line (hematological)",3.85 µM
same,IC50,"Homo sapiens, HT-29, 72 h, HT29 cell line (colon)",1.46 µM
same,IC50,"Homo sapiens, HT-1080, 72 h, HT1080 cell line (connective tissue)",> 50 µM
same,IC50,"Homo sapiens, HeLa, HELA cell line (cervical)",4.53 µM
same,IC50,"Homo sapiens, HepG2, 72 h, HEPG2 cell line (liver)",2.96 µM
same,IC50,"Homo sapiens, Hs-578T, HS578T cell line, breast",6.12 µM
same,IC50,"Homo sapiens, IGROV-1, 72 h, IGROV1 cell line (ovary)",2.03 µM
same,IC50,"Homo sapiens, IMR-90, 72 h, IMR90 cell line, lung",4.24 µM
same,IC50,"Homo sapiens, J82, 72 h, J82 cell line (bladder)",4.64 µM
same,IC50,"Homo sapiens, JEG-3, 72 h, JEG3 cell line (placenta)",2.82 µM
same,IC50,"Homo sapiens, JIMT-1, 72 h, JIMT1 cell line (breast)",1.23 µM
same,IC50,"Homo sapiens, K562, 72 h, K-562 cell line (hematological)",> 50 µM
same,IC50,"Homo sapiens, Kasumi 1, 72 h, KASUMI-1 cell line (hematological)",2.16 µM
same,IC50,"Homo sapiens, L-363, 72 h, L-363 cell line (hematological)",3.36 µM
same,IC50,"Homo sapiens, LoVo, LOVO cell line (colon)",1.61 µM
same,IC50,"Homo sapiens, MCF7, 72 h, MCF7 cell line (breast)",> 50 µM
same,IC50,"Homo sapiens, MDA-MB-231, 72 h, MDAMB231 cell line (breast)",> 50 µM
same,IC50,"Homo sapiens, MDA-MB-435, 72 h, MDAMB435 cell line (skin)",> 50 µM
same,IC50,"Homo sapiens, MDA-MB-436, 72 h, MDAMB436 cell line (breast)",3.22 µM
same,IC50,"Homo sapiens, MDA-MB-468, 72 h, MDAMB468 cell line (breast)",4.45 µM
same,IC50,"Homo sapiens, MG-63, 72 h, MG63 cell line (bone)",> 50 µM
same,IC50,"Homo sapiens, MHH-ES-1, 72 h, MHHES1 cell line (bone)",2.91 µM
same,IC50,"Homo sapiens, MIA PaCa-2, 72 h, MIAPACA2 cell line (pancreas)",> 50 µM
same,IC50,"Homo sapiens, MINO, MINO cell line (hematological)",1.08 µM
same,IC50,"Homo sapiens, MV4-11, 72 h, MV4-11 cell line (hematological)",0.63 µM
same,IC50,"Homo sapiens, NCI-H23, 72 h, NCI-H23 cell line (lung)",3.29 µM
same,IC50,"Homo sapiens, NCI-H82, 72 h, NCIH82 cell line (lung)",3.77 µM
same,IC50,"Homo sapiens, NCI-H292, 72 h, NCIH292 cell line (lung)",> 50 µM
same,IC50,"Homo sapiens, NCI-H460, 72 h, NCIH460 cell line (lung)",3.37 µM
same,IC50,"Homo sapiens, OVCAR-3, 72 h, OVCAR3 cell line (ovary)",2.05 µM
same,IC50,"Homo sapiens, OVCAR-4, 72 h, OVCAR4 cell line (ovary)",3.52 µM
same,IC50,"Homo sapiens, PANC-1, 72 h, PANC1 cell line (pancreas)",> 50 µM
same,IC50,"Homo sapiens, PC-3, 72 h, PC3 cell line (prostate)",5.77 µM
same,IC50,"Homo sapiens, PLC-PRF-5, 72 h, PLCPRF5 cell line (liver)",> 50 µM
same,IC50,"Homo sapiens, Panc1005, 72 h, PANC1005 cell line (pancreas)",1.41 µM
same,IC50,"Homo sapiens, RD, RD cell line (muscle)",6.72 µM
same,IC50,"Homo sapiens, Ramos, RAMOS cell line (hematological)",2.44 µM
same,IC50,"Homo sapiens, SAOS-2, 72 h, SAOS2 cell line (bone)",3.56 µM
same,IC50,"Homo sapiens, SF-268, 72 h, SF268 cell line (brain)",> 50 µM
same,IC50,"Homo sapiens, SF-295, 72 h, SF295 cell line (brain)",> 50 µM
same,IC50,"Homo sapiens, SK-BR-3, 72 h, SKBR3 cell line (breast)",1.33 µM
same,IC50,"Homo sapiens, SK-HEP1, 72 h, SKHEP1 cell line (liver)",> 50 µM
same,IC50,"Homo sapiens, SK-LMS-1, 72 h, SKLMS1 cell line (uterus)",2.29 µM
same,IC50,"Homo sapiens, SK-MEL-5, 72 h, SKMEL5 cell line, skin",> 50 µM
same,IC50,"Homo sapiens, SK-MEL-28, 72 h, SKMEL28 cell line (skin)",9.02 µM
same,IC50,"Homo sapiens, SK-N-AS, SKNAS cell line (brain)",6.83 µM
same,IC50,"Homo sapiens, SK-N-SH, SKNSH cell line (brain)",2.91 µM
same,IC50,"Homo sapiens, SK-OV-3, 72 h, SKOV3 cell line (ovary)",3.62 µM
same,IC50,"Homo sapiens, SNB-75, 72 h, SNB75 cell line (brain)",14.9 µM
same,IC50,"Homo sapiens, SU-DHL10, 72 h, SU-DHL-10 cell line (hematological)",2.62 µM
same,IC50,"Homo sapiens, SU-DHL-6, 72 h, SU-DHL-6 cell line (hematological)",2.1 µM
same,IC50,"Homo sapiens, SW-620, 72 h, SW620 cell line (colon)",3.12 µM
same,IC50,"Homo sapiens, T-24, 72 h, T24 cell line (bladder)",6.26 µM
same,IC50,"Homo sapiens, TE-671, 72 h, TE671 cell line (muscle)",12.6 µM
same,IC50,"Homo sapiens, THP-1, 72 h, THP-1 cell line (hematological)",5.5 µM
same,IC50,"Homo sapiens, U2OS, U2OS cell line (bone)",> 50 µM
same,IC50,"Homo sapiens, U-87 MG, U87MG cell line (brain)",> 50 µM
same,IC50,"Homo sapiens, UMUC3, 72 h, UMUC3 cell line (bladder)",> 50 µM
same,IC50,"Homo sapiens, UO-31, 72 h, UO31 cell line (kidney)",4.54 µM
same,IC50,"Homo sapiens, WSU-NHL, WSU-NHL cell line (hematological)",4.87 µM
same,IC50,"MT-3, 72 h, MT3 cell line (breast)",3.9 µM
same,IC50,"NCI-H358M, NCIH358M cell line (lung)",2.63 µM
same,IC50,"PBMC, PBMC (hematological)",> 50 µM
same,IC50,"RD-ES, RDES cell line (bone)",4.48 µM

# Source: patent publication US20250215039A1, “NUCLEOSIDES FOR TREATING CANCER” (PRIMEFOUR THERAPEUTICS, INC., priority 2022, published 2025)
